The supplement of paper PMC10307832

Columns and labels:
Test in all cases: relative viability (nuclei count vs DMSO), 5 days (fraction); higher = more cells survive
[1] = compound: CN[C@@H]1C[C@H]2O[C@@](C)([C@@H]1OC)n1c3ccccc3c3c4c(c5c6ccccc6n2c5c31)C(=O)NC4 [Staurosporine] + Cc1nc(Nc2ncc(C(=O)Nc3c(C)cccc3Cl)s2)cc(N2CCN(CCO)CC2)n1 [Dasatinib] (partner 0.075 µM)
Summary of the method: (§1)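 Medians of duplicate plates are given as relative viability. That measure is the nuclei count in treated wells divided by the count in vehicle wells. Counts were taken on 4× images of lung cancer cell lines in 1536-well plates, 5 days after pin-tool dosing the day after seeding with one drug alone or a fixed anchor-drug dose plus five library-drug doses (not always all listed) in √10 steps.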

Sulindac + Vorinostat = compound: CC1=C(CC(=O)O)c2cc(F)ccc2/C1=C\c1ccc([S+](C)[O-])cc1 [Sulindac] + O=C(CCCCCCC(=O)Nc1ccccc1)NO [Vorinostat] (partner 1 µM)
Summary of the method: as §1

5-Fluorouracil + OSI-027 = compound: O=c1[nH]cc(F)c(=O)[nH]1 [5-Fluorouracil] + COc1cccc2cc(-c3nc([C@H]4CC[C@H](C(=O)O)CC4)n4ncnc(N)c34)[nH]c12 [OSI-027] (partner 0.5 µM)
Summary of the method: as §1

Staurosporine + OSI-027 = compound: CN[C@@H]1C[C@H]2O[C@@](C)([C@@H]1OC)n1c3ccccc3c3c4c(c5c6ccccc6n2c5c31)C(=O)NC4 [Staurosporine] + COc1cccc2cc(-c3nc([C@H]4CC[C@H](C(=O)O)CC4)n4ncnc(N)c34)[nH]c12 [OSI-027] (partner 0.5 µM)
Summary of the method: as §1

UMC-11
relative viability ([1]; first compound 0.005 µM): 0.508 | relative viability ([1]; first compound 0.05 µM): 0.149 | relative viability ([1]; first compound 0.1581 µM): 0.114 | relative viability ([1]; first compound 0.5 µM): 0.0934 | relative viability (Sulindac + Vorinostat; first compound 0.08 µM): 0.342 | relative viability (Sulindac + Vorinostat; first compound 0.253 µM): 0.411 | relative viability (Sulindac + Vorinostat; first compound 0.8 µM): 0.374 | relative viability (Sulindac + Vorinostat; first compound 2.53 µM): 0.338 | relative viability (Sulindac + Vorinostat; first compound 8 µM): 0.386 | relative viability (5-Fluorouracil + OSI-027; first compound 0.02 µM): 0.445 | relative viability (5-Fluorouracil + OSI-027; first compound 0.2 µM): 0.477 | relative viability (5-Fluorouracil + OSI-027; first compound 0.6325 µM): 0.406 | relative viability (5-Fluorouracil + OSI-027; first compound 2 µM): 0.372 | relative viability (Staurosporine + OSI-027; first compound 0.005 µM): 0.5 | relative viability (Staurosporine + OSI-027; first compound 0.01581 µM): 0.151 | relative viability (Staurosporine + OSI-027; first compound 0.05 µM): 0.138 | relative viability (Staurosporine + OSI-027; first compound 0.1581 µM): 0.133 | relative viability (Staurosporine + OSI-027; first compound 0.5 µM): 0.116
